From patent publication US10167293B2, “[8-(phenylsulfonyl)-3,8-diazabicyclo[3.2.1]oct-3-yl](1H-1,2,3-triazol-4-yl)methanones” (BAYER PHARMA AKTIENGESELLSCHAFT, priority 2016, dated 2019)
pIC50: −log10 of the molar value.

Target: recombinant human AKR1C3 (Homo sapiens (Human), UniProt P42330)
Assay: AKR1C3-inhibitory activity assay (Coumberone to Coumberol fluorescence)
Type: biochemical
Conditions: recombinant human AKR1C3, 15 min pre-incubation, 10 μM NADPH, 0.3 μM Coumberone
Protocol: The AKR1C3-inhibitory activity of the substances of the present invention was measured in the AKR1C3 assay described in the paragraphs below.
Essentially, the enzyme activity is measured by quantification of the generation of Coumberol from Coumberone (Halim et al. J. AM. CHEM. SOC. 2008, 130:14123-14128 and Yee et al. Proc. Natl. Acad. Sci. USA 2006, 103:13304-13309). In this test, the increase of the highly fluorescent Coumberol by NADPH—(nicotinamide adenine dinucleotide phosphate)-dependent reduction of the non-fluorescent Coumberone by AKR1C3 was determined.
The enzyme used was recombinant human AKR1C3 (Aldo-keto reductase family 1 member C3; GenBank Accession No. NM_003739). This was expressed in E. coli as GST (glutathione S transferase) fusion protein and purified by glutathione Sepharose affinity chromatography. The GST was removed by digestion with thrombin and subsequent size exclusion chromatography (Dufort, I., Rheault, P., Huang, X F., Soucy, P., and Luu-The, V., Endocrinology 140, 568-574 (1999)).
For the assay, 50 nl of a 100-fold concentrated solution of the test substance in DMSO were pipetted into a black low-volume 384-well microtiter plate (Greiner Bio-One, Frickenhausen, Germany), 2.5 μl of a solution of AKR1C3 in assay buffer [50 mM potassium phosphate buffer pH 7, 1 mM DTT, 0.0022% (w/v) Pluronic F-127, 0.01% BSA (w/v) and protease inhibitor cocktail (Complete, EDTA-free Protease Inhibitor Cocktail from Roche)] were added and the mixture was incubated for 15 min to allow pre-binding of the substances to the enzyme prior to the enzyme reaction. The enzyme reaction was then started by addition of 2.5 μl of a solution of NADPH (20 μM→final concentration in 5 μl of assay volume is 10 μM) and Coumberone (0.6 μM→final concentration in 5 μl of assay volume is 0.3 μM) in assay buffer, and the resulting mixture was incubated at 22° C. for the reaction time of typically 90 min. The concentration of the AKR1C3 and the reaction time was adapted to the respective activity of the enzyme preparation and adjusted such that the assay was carried out in the linear range. Typical AKR1C3 concentrations were in the region of 1 nM. The reaction was stopped by addition of 2.5 μl of a stop solution consisting of 3 μM EM-1404 as inhibitor (U.S. Pat. No. 6,541,463) in 50 mM HEPES pH7.5 (3 μM EM-1404→final concentration in 7.5 μl of assay volume is 1 μM). The fluorescence of the Coumberole was then measured at 520 nm (excitation at 380 nm) using a suitable measuring instrument (Pherastar from BMG Labtechnologies). The intensity of the fluorescence was used as a measure of the amount of Coumberole formed and thus of the enzyme activity of AKR1C3. The data were normalized (enzyme reaction without inhibitor=0% inhibition; all other assay components, but no enzyme=100% inhibition).

recombinant human AKR1C3, sequence (P42330 whole entry): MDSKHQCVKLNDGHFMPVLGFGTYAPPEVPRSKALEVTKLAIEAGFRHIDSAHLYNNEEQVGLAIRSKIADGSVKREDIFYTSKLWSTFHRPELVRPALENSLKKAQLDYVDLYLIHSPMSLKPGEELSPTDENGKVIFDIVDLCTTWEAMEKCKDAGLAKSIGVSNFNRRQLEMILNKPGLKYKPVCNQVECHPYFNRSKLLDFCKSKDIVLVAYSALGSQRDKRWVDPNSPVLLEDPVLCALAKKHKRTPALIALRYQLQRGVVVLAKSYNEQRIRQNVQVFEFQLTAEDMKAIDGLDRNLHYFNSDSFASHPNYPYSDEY

Row | SMILES | pIC50
1 | O=C(c1cnn[nH]1)N1CC2CCC(C1)N2S(=O)(=O)c1cccc(OC(F)(F)F)c1 [Example 33, 1H-1,2,3-triazol-5-yl[8-{[3-(trifluoromethoxy)phenyl]sulfonyl}-3,8-diazabicyclo[3.2.1]oct-3-yl]methanone] | 8.74
2 | O=C(c1c[nH]nn1)N1CC2CCC(C1)N2S(=O)(=O)c1ccc(Cl)s1 [Example 11, {8-[(5-chlorothiophen-2-yl)sulfonyl]-3,8-diazabicyclo[3.2.1]oct-3-yl}(1H-1,2,3-triazol-4-yl)methanone] | 8.96
3 | O=C(c1cnn[nH]1)N1CC2CCC(C1)N2S(=O)(=O)c1cccc2c1OCC2 [Example 69, [8-(2,3-dihydro-1-benzofuran-7-ylsulfonyl)-3,8-diazabicyclo[3.2.1]oct-3-yl](1H-1,2,3-triazol-5-yl)methanone] | 9.22
4 | O=C(c1cnn[nH]1)N1CC2CCC(C1)N2S(=O)(=O)c1ccc(Cl)c(Cl)c1 [Example 48, {8-[(3,4-dichlorophenyl)sulfonyl]-3,8-diazabicyclo[3.2.1]oct-3-yl}(1H-1,2,3-triazol-5-yl)methanone] | 8.96
5 | O=C(c1cnn[nH]1)N1CC2CCC(C1)N2S(=O)(=O)c1ccc(C(F)(F)F)cc1 [Example 36, 1H-1,2,3-triazol-5-yl[8-{[4-(trifluoromethyl)phenyl]sulfonyl}-3,8-diazabicyclo[3.2.1]oct-3-yl]methanone] | 8.48
6 | O=C(c1cnn[nH]1)N1CC2CCC(C1)N2S(=O)(=O)c1c(Cl)cc(Cl)cc1Cl [Example 56, 1H-1,2,3-triazol-5-yl{8-[(2,4,6-trichlorophenyl)sulfonyl]-3,8-diazabicyclo[3.2.1]oct-3-yl}methanone] | 8.85
7 | O=C(c1cnn[nH]1)N1CC2CCC(C1)N2S(=O)(=O)c1ccc2c(c1)OCO2 [Example 66, [8-(1,3-benzodioxol-5-ylsulfonyl)-3,8-diazabicyclo[3.2.1]oct-3-yl](1H-1,2,3-triazol-5-yl)methanone] | 9.05
8 | O=C(c1cnn[nH]1)N1CC2CCC(C1)N2S(=O)(=O)c1cc(F)cc(F)c1 [Example 75, sodium 5-({8-[(3,5-difluorophenyl)sulfonyl]-3,8-diazabicyclo[3.2.1]oct-3-yl}carbonyl)-1,2,3-triazol-1-ide] | 9.15
9 | O=C(c1cnn[nH]1)N1CC2CCC(C1)N2S(=O)(=O)c1ccc(F)c(F)c1F [Example 59, 1H-1,2,3-triazol-5-yl{8-[(2,3,4-trifluorophenyl)sulfonyl]-3,8-diazabicyclo[3.2.1]oct-3-yl}methanone] | 8.66
10 | Cc1c(Cl)cccc1S(=O)(=O)N1C2CCC1CN(C(=O)c1cnn[nH]1)C2 [Example 26, {8-[(3-chloro-2-methylphenyl)sulfonyl]-3,8-diazabicyclo[3.2.1]oct-3-yl}(1H-1,2,3-triazol-5-yl)methanone] | 8.96
11 | N#Cc1cc(S(=O)(=O)N2C3CCC2CN(C(=O)c2cnn[nH]2)C3)ccc1F [Example 60, 2-fluoro-5-{[3-(1H-1,2,3-triazol-5-ylcarbonyl)-3,8-diazabicyclo[3.2.1]oct-8-yl]sulfonyl}benzonitrile] | 7.55
12 | O=C(c1cnn[nH]1)N1CC2CCC(C1)N2S(=O)(=O)c1cccc2cccnc12 [Example 40, [8-(quinolin-8-ylsulfonyl)-3,8-diazabicyclo[3.2.1]oct-3-yl](1H-1,2,3-triazol-5-yl)methanone] | 8.47
13 | Cc1cc(C)c(S(=O)(=O)N2C3CCC2CN(C(=O)c2cnn[nH]2)C3)c(C)c1 [Example 45, 1H-1,2,3-triazol-5-yl{8-[(2,4,6-trimethylphenyl)sulfonyl]-3,8-diazabicyclo[3.2.1]oct-3-yl}methanone] | 8.85
14 | O=C(c1cnn[nH]1)N1CC2CCC(C1)N2S(=O)(=O)c1ccccc1F [Example 15, {8-[(2-fluorophenyl)sulfonyl]-3,8-diazabicyclo[3.2.1]oct-3-yl}(1H-1,2,3-triazol-5-yl)methanone] | 8.82
15 | COc1ccc(C#N)cc1S(=O)(=O)N1C2CCC1CN(C(=O)c1cnn[nH]1)C2 [Example 73, 4-methoxy-3-{[3-(1H-1,2,3-triazol-5-ylcarbonyl)-3,8-diazabicyclo[3.2.1]oct-8-yl]sulfonyl}benzonitrile] | 7.55
16 | O=C(c1c[nH]nn1)N1CC2CCC(C1)N2S(=O)(=O)c1cc(F)ccc1F [Example 12, {8-[(2,5-difluorophenyl)sulfonyl]-3,8-diazabicyclo[3.2.1]oct-3-yl}(1H-1,2,3-triazol-4-yl)methanone] | 8.96
17 | O=C(c1c[nH]nn1)N1CC2CCC(C1)N2S(=O)(=O)c1ccccc1 [Example 1, [8-(phenylsulfonyl)-3,8-diazabicyclo[3.2.1]oct-3-yl](1H-1,2,3-triazol-4-yl)methanone] | 8.43
18 | O=C(c1cnn[nH]1)N1CC2CCC(C1)N2S(=O)(=O)c1cc(Cl)ccc1C(F)(F)F [Example 34, [8-{[5-chloro-2-(trifluoromethyl)phenyl]sulfonyl}-3,8-diazabicyclo[3.2.1]oct-3-yl](1H-1,2,3-triazol-5-yl)methanone] | 8.72
19 | O=C(c1cnn[nH]1)N1CC2CCC(C1)N2S(=O)(=O)c1c(F)cccc1F [Example 24, {8-[(2,6-difluorophenyl)sulfonyl]-3,8-diazabicyclo[3.2.1]oct-3-yl}(1H-1,2,3-triazol-5-yl)methanone] | 8.74
20 | O=C(c1cnn[nH]1)N1CC2CCC(C1)N2S(=O)(=O)c1cc(F)cc(F)c1 [Example 3, {8-[(3,5-difluorophenyl)sulfonyl]-3,8-diazabicyclo[3.2.1]oct-3-yl}(1H-1,2,3-triazol-5-yl)methanone] | 8.85
21 | N#Cc1ccc(Cl)c(S(=O)(=O)N2C3CCC2CN(C(=O)c2cnn[nH]2)C3)c1 [Example 74, 4-chloro-3-{[3-(1H-1,2,3-triazol-5-ylcarbonyl)-3,8-diazabicyclo[3.2.1]oct-8-yl]sulfonyl}benzonitrile] | 8.26
22 | O=C(c1cnn[nH]1)N1CC2CCC(C1)N2S(=O)(=O)c1cccc([N+](=O)[O-])c1 [Example 44, {8-[(3-nitrophenyl)sulfonyl]-3,8-diazabicyclo[3.2.1]oct-3-yl}(1H-1,2,3-triazol-5-yl)methanone] | 8.72
23 | O=C(c1cnn[nH]1)N1CC2CCC(C1)N2S(=O)(=O)c1cccc2ccccc12 [Example 39, [8-(naphthalen-1-ylsulfonyl)-3,8-diazabicyclo[3.2.1]oct-3-yl](1H-1,2,3-triazol-5-yl)methanone] | 8.89
24 | O=C(c1cnn[nH]1)N1CC2CCC(C1)N2S(=O)(=O)c1ccc(O)cc1 [Example 37, {8-[(4-hydroxyphenyl)sulfonyl]-3,8-diazabicyclo[3.2.1]oct-3-yl}(1H-1,2,3-triazol-5-yl)methanone] | 8.55
25 | O=C(c1cnn[nH]1)N1CC2CCC(C1)N2S(=O)(=O)c1ccccc1[N+](=O)[O-] [Example 46, {8-[(2-nitrophenyl)sulfonyl]-3,8-diazabicyclo[3.2.1]oct-3-yl}(1H-1,2,3-triazol-5-yl)methanone] | 9.05
26 | O=C(c1cnn[nH]1)N1CC2CCC(C1)N2S(=O)(=O)c1cccc(Cl)c1F [Example 27, {8-[(3-chloro-2-fluorophenyl)sulfonyl]-3,8-diazabicyclo[3.2.1]oct-3-yl}(1H-1,2,3-triazol-5-yl)methanone] | 9.05
27 | O=C(c1cnn[nH]1)N1CC2CCC(C1)N2S(=O)(=O)c1ccc(F)c(Cl)c1 [Example 28, {8-[(3-chloro-4-fluorophenyl)sulfonyl]-3,8-diazabicyclo[3.2.1]oct-3-yl}(1H-1,2,3-triazol-5-yl)methanone] | 8.92
